From patent publication US8916499B2, “Herbicidal compositions comprising 4-amino-3-chloro-5-fluoro-6-(4-chloro-2-fluoro-3-methoxyphenyl) pyridine-2-carboxylic acid or a derivative thereof and a protoporphyrinogen oxidase inhibitor” (Dow AgroSciences LLC, priority 2012, dated 2014)

How the values were obtained:
ECHOR = experiment: In-water applied weed control, transplanted paddy rice, greenhouse (Example II); assay type: in vivo, Echinochloa oryzoides (Ard.) Fritsch
SCPMA = experiment: as above; assay type: in vivo; conditions: Bifenox (Fox ®) 180 g ai/ha alone
PAPRH = experiment: Postemergence foliar herbicidal activity of mixtures in cereal crops, greenhouse (Example III); assay type: in vivo, Papaver rhoeas L.; conditions: foliar-applied
Procedure: Seeds of the desired test plant species were planted in Sun Gro MetroMix® 306 planting mixture, which typically has a pH of 6.0 to 6.8 and an organic matter content of about 30 percent, in plastic pots with a surface area of 103.2 square centimeters (cm^2). When required to ensure good germination and healthy plants, a fungicide treatment and/or other chemical or physical treatment was applied. The plants were grown for 7-36 days in a greenhouse with an approximate 14 hour photoperiod which was maintained at about 18° C. during the day and about 17° C. during the night. Nutrients and water were added on a regular basis and supplemental lighting was provided with overhead metal halide 1000-Watt lamps as necessary. The plants were employed for testing when they reached the second or third true leaf stage.
Treatments consisted of the benzyl ester of 4-amino-3-chloro-5-fluoro-6-(4-chloro-2-fluoro-3-methoxy-phenyl)pyridine-2-carboxylic acid (Compound A), formulated as an SC, a second cereal herbicide alone and then both in combination.
Other herbicidal components were applied on an active ingredient basis and included PSII-inhibiting herbicides.
Measured aliquots of benzyl ester of 4-amino-3-chloro-5-fluoro-6-(4-chloro-2-fluoro-3-methoxy-phenyl)pyridine-2-carboxylic acid (Compound A) were placed in 25 milliliter (mL) glass vials and diluted in a volume of 1.25% (v/v) Agri-Dex® crop oil concentrate to obtain stock solutions. Compound requirements are based upon a 12 mL application volume at a rate of 187 liters per hectare (L/ha). Spray solutions of the second cereal herbicide and experimental compound mixtures were prepared by adding the stock solutions to the appropriate amount of dilution solution to form 12 mL spray solution with active ingredients in two- and three-way combinations. Formulated compounds were applied to the plant material with an overhead Mandel track sprayer equipped with an 8002E nozzle calibrated to deliver 187 L/ha over an application area of 0.503 square meters (m^2) at a spray height of 18 inches (46 cm) above average plant canopy. Control plants were sprayed in the same manner with the solvent blank.
The treated plants and control plants were placed in a greenhouse as described above and watered by sub-irrigation to prevent wash-off of the test compounds. After 20-22 days, the condition of the test plants as compared with that of the control plants was determined visually and scored on a scale of 0 to 100 percent where 0 corresponds to no injury and 100 corresponds to complete kill.
Colby's equation was used to determine the herbicidal effects expected from the mixtures (Colby, S. R. 1967. Calculation of the synergistic and antagonistic response of herbicide combinations. Weeds 15:20-22.).
The following equation was used to calculate the expected activity of mixtures containing two active ingredients, A and B: Expected=A+B−(A×B/100)

IPOHE = experiment: Postemergence foliar-applied weed control, direct seeded rice, greenhouse (Example I); assay type: in vivo, Ipomoea hederacea Jacq.
CYPIR = experiment: as above; assay type: in vivo, Cyperus iria L.
ECHCG = experiment: In-water applied weed control, transplanted paddy rice, greenhouse (Example II); assay type: in vivo, Echinochloa crus-galli (L.) P. Beauv.
BRAPP = experiment: Postemergence foliar-applied weed control, direct seeded rice, greenhouse (Example I); assay type: in vivo, Brachiaria platyphylla (Griseb.) Nash; conditions: g ae/ha Compound A Acid+g ai/ha pyraclonil: r11 4.38+0, r12 0+33.75, r13 0+67.5, r14 0+135, r15 4.38+33.75, r16 4.38+67.5, r17 4.38+135
SCPJU = experiment: In-water applied weed control, transplanted paddy rice, greenhouse (Example II); assay type: in vivo, Schoenoplectus juncoides (Roxb.) Palla
FIMMI = experiment: as above; assay type: in vivo, Fimbristylis miliacea (L.) Vahl; conditions: 8.75 g ae/ha alone
LEFCH [1] = experiment: as above; assay type: in vivo, Leptochloa chinensis (L.) Nees
ECHCO = experiment: Postemergence foliar-applied weed control, direct seeded rice, greenhouse (Example I); assay type: in vivo, Echinochloa colona (L.) Link; conditions: g ae/ha Compound A Acid+g ai/ha saflufenacil: r24 4.38+0, r25 0+5, r26 0+10, r27 0+20, r28 4.38+5, r29 4.38+10, r30 4.38+20
LEFCH [2] = experiment: as above; assay type: in vivo, Leptochloa chinensis (L.) Nees; conditions: g ae/ha Compound A Acid+g ai/ha carfentrazone-ethyl: r39 19.4+0, r40 0+28, r41 19.4+28
CYPRO = experiment: In-water applied weed control, transplanted paddy rice, greenhouse (Example II); assay type: in vivo, Cyperus rotundus L.

Q: What does the source list for `COC(=O)c1cc(Oc2ccc(Cl)cc2Cl)ccc1[N+](=O)[O-]` [Bifenox, methyl 5-(2,4-dichlorophenoxy)-2-nitrobenzoate]?
A: Visual Weed Control (%) - 21 DAA ECHOR Obs (ECHOR; Bifenox (technical) 720 g ai/ha alone): 40%; Visual Weed Control (%) - 21 DAA SCPMA Obs (SCPMA): 40%; Visual Weed Control (%) - 21 DAA PAPRH Obs (PAPRH; 180 g ai/ha alone): 5%; Visual Weed Control (%) - 21 DAA PAPRH Obs (PAPRH; 360 g ai/ha alone): 8%; Visual Weed Control (%) - 21 DAA PAPRH Obs (PAPRH; 780 g ai/ha alone): 8%; Visual Weed Control (%) - 21 DAA IPOHE Obs (IPOHE; g ae/ha Compound A Benzyl Ester+g ai/ha bifenox (Fox ®): r11 16+0, r12 32+0, r13 0+180, r14 16+180, r15 32+180): 55%; Visual Weed Control (%) - 21 DAA CYPIR Obs (CYPIR; g ae/ha Compound A Benzyl Ester+g ai/ha bifenox (Fox ®): r17 8+0, r18 0+180, r19 0+360, r20 0+720, r21 8+180, r22 8+360, r23 8+720): 0%; Visual Weed Control (%) - 22 DAA CYPIR Obs (CYPIR; g ae/ha Compound A Benzyl Ester+g ai/ha bifenox (technical): r23 8+0, r24 16+0, r25 0+180, r26 0+720, r27 8+180, r28 16+180, r29 8+720, r30 16+720): 0%

Q: For `COc1c(Cl)ccc(-c2nc(C(=O)O)c(Cl)c(N)c2F)c1F` [Compound A Acid, 4-amino-3-chloro-5-fluoro-6-(4-chloro-2-fluoro-3-methoxy-phenyl)pyridine-2-carboxylic acid], which “Visual Weed Control (%) - 19 DAA ECHOR Obs” value (ECHOR; g ae/ha Compound A Acid+g ai/ha carfentrazone-ethyl: r28 42.4+0, r29 0+215, r30 42.4+215) is on record?
A: 15%

Q: And the “Visual Weed Control (%) - 21 DAA ECHCG Obs” value (ECHCG; 8.75 g ae/ha alone)?
A: 15%

Q: And the “Visual Weed Control (%) - 20 DAA ECHCG Obs” value (ECHCG; 17.5 g ae/ha alone)?
A: 50%

Q: What about the “Visual Weed Control (%) - 21 DAA ECHCG Obs” value (ECHCG; 17.5 g ae/ha alone) of the same compound?
A: 20%

Q: And the “Visual Weed Control (%) - 20 DAA ECHCG Obs” value (ECHCG; 35 g ae/ha alone)?
A: 95%

Q: What about the “Visual Weed Control (%) - 21 DAA ECHCG Obs” value (ECHCG; 35 g ae/ha alone) of the same compound?
A: 95%

Q: What about the “Visual Weed Control (%) - 20 DAA BRAPP Obs” value (BRAPP) of the same compound?
A: 10%

Q: And the “Visual Weed Control (%) - 21 DAA SCPJU Obs” value (SCPJU; 8.75 g ae/ha alone)?
A: 40%

Q: What about the “Visual Weed Control (%) - 21 DAA SCPJU Obs” value (SCPJU; 17.5 g ae/ha alone) of the same compound?
A: 60%

Q: What about the “Visual Weed Control (%) - 21 DAA SCPJU Obs” value (SCPJU; 35 g ae/ha alone) of the same compound?
A: 95%

Q: And the “Visual Weed Control (%) - 21 DAA FIMMI Obs” value (FIMMI)?
A: 0%

Q: And the “Visual Weed Control (%) - 20 DAA LEFCH Obs” value (LEFCH [1]; 17.5 g ae/ha alone)?
A: 0%

Q: What about the “Visual Weed Control (%) - 20 DAA LEFCH Obs” value (LEFCH [1]; 35 g ae/ha alone) of the same compound?
A: 30%

Q: What about the “Visual Weed Control (%) - 21 DAA LEFCH Obs” value (LEFCH [1]; 35 g ae/ha alone) of the same compound?
A: 5%

Q: And the “Visual Weed Control (%) - 21 DAA LEFCH Obs” value (LEFCH [1]; 70 g ae/ha alone)?
A: 23%

Q: What about the “Visual Weed Control (%) - 20 DAA IPOHE Obs” value (IPOHE; first section, g ae/ha Compound A Acid+g ai/ha oxadiazon: r12 8.75+0, r13 0+31.25, r14 0+62.5, r15 0+125, r16 8.75+31.25, r17 8.75+62.5, r18 8.75+125) of the same compound?
A: 10%

Q: What about the “Visual Weed Control (%) - 21 DAA IPOHE Obs” value (IPOHE; g ae/ha Compound A Acid+g ai/ha pyraclonil: r53 35+0, r54 0+270, r55 35+270) of the same compound?
A: 45%

Q: And the “Visual Weed Control (%) - 20 DAA ECHCO Obs” value (ECHCO)?
A: 40%

Q: What about the “Visual Weed Control (%) - 19 DAA LEFCH Obs” value (LEFCH [2]) of the same compound?
A: 5%

Q: And the “Visual Weed Control (%) - 20 DAA CYPRO Obs” value (CYPRO; 8.75 g ae/ha alone)?
A: 0%

Q: And the “Visual Weed Control (%) - 20 DAA CYPRO Obs” value (CYPRO; 17.5 g ae/ha alone)?
A: 20%

Q: And the “Visual Weed Control (%) - 20 DAA CYPRO Obs” value (CYPRO; 35 g ae/ha alone)?
A: 80%

Q: What about the “Visual Weed Control (%) - 21 DAA CYPRO Obs” value (CYPRO; 35 g ae/ha alone) of the same compound?
A: 70%

Q: And the “Visual Weed Control (%) - 20 DAA CYPIR Obs” value (CYPIR; g ae/ha Compound A Acid+g ai/ha saflufenacil: r24 4.38+0, r25 0+5, r26 0+10, r27 0+20, r28 4.38+5, r29 4.38+10, r30 4.38+20)?
A: 30%
